For one compound, inhibition, Activity and IC50 results are on record in ChEMBL document CHEMBL4806963, “Antagonistic peptides for frizzled-1 and frizzled-2” (2013).

Structures are written as SMILES. Active and inactive are the calls of the source. The calls are words filed in the database; no cut-off is given here. Where a SMILES comes first, the peptide text is derived from it.

The target in test [1] is Frizzled-2 (Rattus norvegicus) (UniProt Q08464). Description: Antagonist activity at Wnt3a-stimulated rat frizzled-2 expressed in African green monkey COS7 cells incubated for 24 hrs by luciferase reporter gene assay relative to control. It counts as cell-based. Conditions: filed as antagonist, concentration not given here. (A reporter such as luciferase makes a cellular process visible.)

Test [2] shares this target. As to the kind of experiment: Agonist activity at rat frizzled-2 expressed in African green monkey COS7 cells by luciferase reporter gene assay. It counts as cell-based.
The target is the same in test [3]. Description: Agonist activity at rat frizzled-2 expressed in CHO cells by luciferase reporter gene assay. It counts as cell-based.
The target is the same in test [4]. Description: Agonist activity at rat frizzled-2 expressed in human HEK293superTOP flash cells by luciferase reporter gene assay. It counts as cell-based. Conditions: HEK293.
Another test concerns the target Frizzled-1 (Rattus norvegicus, UniProt Q08463). As to the kind of experiment: Antagonist activity at Wnt3a-stimulated rat frizzled-1 expressed in human HEK293superTOP flash cells incubated for 24 hrs by luciferase reporter gene assay. It counts as cell-based, HEK293.
In test [5] the target is Frizzled-1 (Rattus norvegicus) (UniProt Q08463). As to the kind of experiment: Antagonist activity at Wnt3a-stimulated rat frizzled-1 expressed in African green monkey COS7 cells incubated for 24 hrs by luciferase reporter gene assay relative to control. It counts as cell-based. The note with it: filed as antagonist, concentration not given here.
For test [6] the target is unchanged. Description: Antagonist activity at Wnt3a-stimulated rat frizzled-1 expressed in human HEK293superTOP flash cells at 10 nM incubated for 24 hrs by luciferase reporter gene assay relative to control. It counts as cell-based. Conditions: HEK293, filed as antagonist.
Test [7] has the same target. Description: Agonist activity at rat frizzled-1 expressed in African green monkey COS7 cells by luciferase reporter gene assay. It counts as cell-based.
The target of test [8] is Frizzled-2 (Rattus norvegicus) (UniProt Q08464). Description: Antagonist activity at Wnt3a-stimulated rat frizzled-2 expressed in CHO cells incubated for 24 hrs by luciferase reporter gene assay relative to control. It counts as cell-based. Conditions: filed as antagonist, concentration not given here.
In a further test the target is Frizzled-2 (Rattus norvegicus, UniProt Q08464). As to the kind of experiment: Antagonist activity at Wnt3a-stimulated rat frizzled-2 expressed in human HEK293superTOP flash cells incubated for 24 hrs by luciferase reporter gene assay. It counts as cell-based, HEK293.
Test [9] addresses Frizzled-1 (Rattus norvegicus) (UniProt Q08463). As to the kind of experiment: Agonist activity at rat frizzled-1 expressed in CHO cells by luciferase reporter gene assay. It counts as cell-based.
Test [10] has the same target. Description: Agonist activity at rat frizzled-1 expressed in human HEK293superTOP flash cells by luciferase reporter gene assay. It counts as cell-based. Conditions: HEK293.
For test [11], the target named is Frizzled-2 (Rattus norvegicus) (UniProt Q08464). Description: Antagonist activity at Wnt3a-stimulated rat frizzled-2 expressed in human HEK293superTOP flash cells at 10 nM incubated for 24 hrs by luciferase reporter gene assay relative to control. It counts as cell-based. Conditions: HEK293, filed as antagonist.
Test [12] concerns the target Frizzled-1 (Rattus norvegicus) (UniProt Q08463). As to the kind of experiment: Antagonist activity at Wnt3a-stimulated rat frizzled-1 expressed in CHO cells incubated for 24 hrs by luciferase reporter gene assay relative to control. It counts as cell-based. Conditions: filed as antagonist, concentration not given here.

Frizzled-1 (Rattus norvegicus), sequence (Q08463 whole entry): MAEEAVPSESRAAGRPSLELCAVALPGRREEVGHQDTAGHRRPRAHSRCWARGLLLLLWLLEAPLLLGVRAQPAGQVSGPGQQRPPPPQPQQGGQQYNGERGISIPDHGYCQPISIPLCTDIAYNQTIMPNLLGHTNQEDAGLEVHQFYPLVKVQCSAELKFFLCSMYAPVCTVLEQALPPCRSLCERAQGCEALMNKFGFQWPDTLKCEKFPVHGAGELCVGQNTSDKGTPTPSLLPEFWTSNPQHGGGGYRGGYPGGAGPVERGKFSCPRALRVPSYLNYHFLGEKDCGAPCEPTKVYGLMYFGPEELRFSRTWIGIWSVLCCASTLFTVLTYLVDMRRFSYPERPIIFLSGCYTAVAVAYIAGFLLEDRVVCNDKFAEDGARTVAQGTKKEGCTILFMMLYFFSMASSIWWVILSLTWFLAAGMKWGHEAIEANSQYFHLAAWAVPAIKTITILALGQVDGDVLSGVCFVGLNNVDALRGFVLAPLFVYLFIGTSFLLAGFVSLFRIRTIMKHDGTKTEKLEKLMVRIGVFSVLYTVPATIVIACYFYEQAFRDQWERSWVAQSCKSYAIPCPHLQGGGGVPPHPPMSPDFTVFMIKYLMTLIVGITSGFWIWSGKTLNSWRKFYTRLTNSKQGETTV
Frizzled-2 (Rattus norvegicus), sequence (Q08464 29-570 limits assumed): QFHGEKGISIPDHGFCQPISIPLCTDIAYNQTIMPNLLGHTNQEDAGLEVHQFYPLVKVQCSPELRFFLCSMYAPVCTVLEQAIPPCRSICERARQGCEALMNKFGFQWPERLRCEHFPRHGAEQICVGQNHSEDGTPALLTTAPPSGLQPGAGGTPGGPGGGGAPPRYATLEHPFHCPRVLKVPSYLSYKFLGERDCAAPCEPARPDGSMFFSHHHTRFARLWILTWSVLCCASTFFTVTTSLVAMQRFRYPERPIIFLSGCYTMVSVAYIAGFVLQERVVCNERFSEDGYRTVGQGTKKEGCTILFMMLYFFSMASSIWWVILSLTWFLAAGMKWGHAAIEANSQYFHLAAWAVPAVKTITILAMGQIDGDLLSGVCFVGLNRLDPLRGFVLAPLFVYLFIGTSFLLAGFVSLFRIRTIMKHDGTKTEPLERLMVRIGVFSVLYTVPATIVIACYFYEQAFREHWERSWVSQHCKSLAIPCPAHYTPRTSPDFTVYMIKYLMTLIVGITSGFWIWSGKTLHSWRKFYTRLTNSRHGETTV
Frizzled-2, sequence (Q08464 whole entry): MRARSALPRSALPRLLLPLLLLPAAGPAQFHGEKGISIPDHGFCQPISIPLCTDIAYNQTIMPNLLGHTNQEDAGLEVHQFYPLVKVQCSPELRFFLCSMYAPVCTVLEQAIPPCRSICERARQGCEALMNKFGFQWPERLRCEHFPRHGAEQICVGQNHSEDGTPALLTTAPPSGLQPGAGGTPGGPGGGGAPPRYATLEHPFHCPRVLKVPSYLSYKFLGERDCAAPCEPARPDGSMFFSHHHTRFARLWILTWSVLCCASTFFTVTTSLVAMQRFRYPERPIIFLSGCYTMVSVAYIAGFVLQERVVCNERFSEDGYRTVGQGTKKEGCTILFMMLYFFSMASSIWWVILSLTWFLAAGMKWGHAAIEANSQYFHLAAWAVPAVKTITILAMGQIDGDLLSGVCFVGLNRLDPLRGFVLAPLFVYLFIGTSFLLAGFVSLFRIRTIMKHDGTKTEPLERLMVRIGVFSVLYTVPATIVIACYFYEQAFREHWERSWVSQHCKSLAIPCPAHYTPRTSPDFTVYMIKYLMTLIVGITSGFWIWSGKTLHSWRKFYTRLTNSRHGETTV
Frizzled-1, sequence (Q08463 whole entry): as the sequence (Q08463 whole entry) above

`CC(=O)NCC(=O)N[C@@H](CO)C(=O)N[C@@H](CS)C(=O)N[C@@H](CO)C(=O)N[C@@H](CC(C)C)C(=O)N[C@@H](CCCCN)C(=O)N[C@H](C(=O)N[C@@H](CS)C(=O)N[C@@H](Cc1c[nH]c2ccccc12)C(=O)N[C@@H](CC(C)C)C(=O)N[C@@H](CCC(N)=O)C(=O)N[C@@H](CC(C)C)C(=O)N[C@@H](C)C(=O)N[C@@H](CC(=O)O)C(N)=O)[C@@H](C)O` (Ac-GSCSLKTCWLQLAD-NH2): the inhibition in test [1], in test [5], in test [6], in test [8], in test [11] and in test [12] was 100% throughout. In addition, the result in [2], in [3], in [4], in test [7], in test [9] and in [10] was inactive. Moreover, the IC50 stood at 2.06 µM on Frizzled-1 and 2.11 µM on Frizzled-2.

The term inhibition denotes the change of the read-out against control, counted positive when it falls. Broadly, the IC50 is the concentration that gives 50% inhibition.
